For one compound, IC50 results are on record in US7888464B2, “Hepatitis C virus inhibitors” (Bristol-Myers Squibb Company, priority 2006, dated 2011).

Each structure is given as a SMILES string. pIC50: −log10 of the molar value. A value given as a limit tells only on which side of the number the result lay.

Format in all cases: biochemical
For test [1], the target named is T1, porcine pancreatic elastase (PPE) (Sus scrofa, UniProt P00772).
T1 construct: purchased Sigma, EMDbiosciences
The test is described as follows: Specificity assay, pancreatic elastase. As to conditions: read-out: PPE activity in the specificity assays. As for the experimental part: The specificities of compounds of the present disclosure were determined against a variety of serine proteases: human neutrophil elastase (HNE), porcine pancreatic elastase (PPE) and human pancreatic chymotrypsin and one cysteine protease: human liver cathepsin B. In all cases a 96-well plate format protocol using a fluorometric Amino-Methyl-Coumarin (AMC) substrate specific for each enzyme was used as described previously (PCT Patent Application No. WO 00/09543) with some modifications to the serine protease assays. All enzymes were purchased from Sigma, EMDbiosciences while the substrates were from Bachem, Sigma and EMDbiosciences.
Compound concentrations varied from 100 to 0.4 μM depending on their potency. The enzyme assays were each initiated by addition of substrate to enzyme-inhibitor pre-incubated for 10 min at room temperature and hydrolysis to 15% conversion as measured on cytofluor.
50 mM Tris-HCl, pH 8.0, 50 mM NaCl, 0.1 mM EDTA, 3% DMSO, 0.02% Tween-20, 5 μM succ-AAPV-AMC and 20 nM HNE or 8 nM PPE;
The percentage of inhibition was calculated using the formula: [1−((UVinh−UVblank)/(UVctl−UVblank))]×100
A non-linear curve fit was applied to the inhibition-concentration data, and the 50% effective concentration (IC50) was calculated by the use of Excel XLfit software.

The target in test [2] is T2, HCV NS3/4A protease complex, BMS strain (genotype 1a) (UniProt P27958, species not given/STRAIN_BMS).
T2 construct: "DNA encoding the recombinant HCV NS3/4A protease complex (amino acids 1027 to 1711) for these strains" (said of H77 and J4L6S, not expressly of BMS); given for the H77/J4L6S constructs only
T2 sequence (P27958 1027-1657, stated change not applied, one chain of several): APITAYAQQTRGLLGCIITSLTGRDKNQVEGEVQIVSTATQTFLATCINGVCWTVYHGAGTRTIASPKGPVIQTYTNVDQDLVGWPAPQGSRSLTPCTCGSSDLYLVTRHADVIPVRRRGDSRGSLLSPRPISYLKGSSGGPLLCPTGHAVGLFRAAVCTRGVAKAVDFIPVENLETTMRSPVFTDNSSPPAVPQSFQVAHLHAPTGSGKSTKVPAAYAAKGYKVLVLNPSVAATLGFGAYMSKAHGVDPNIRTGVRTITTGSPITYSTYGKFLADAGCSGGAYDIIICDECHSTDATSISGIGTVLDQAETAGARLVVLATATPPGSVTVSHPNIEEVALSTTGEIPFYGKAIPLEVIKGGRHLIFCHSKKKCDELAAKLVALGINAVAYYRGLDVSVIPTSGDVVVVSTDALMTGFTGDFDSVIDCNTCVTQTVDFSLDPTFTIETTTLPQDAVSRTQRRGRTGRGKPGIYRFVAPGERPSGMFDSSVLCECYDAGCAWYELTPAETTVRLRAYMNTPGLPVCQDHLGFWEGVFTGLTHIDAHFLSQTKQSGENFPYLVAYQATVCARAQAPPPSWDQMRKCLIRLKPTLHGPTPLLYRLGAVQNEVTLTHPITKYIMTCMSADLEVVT
The test is described as follows: FRET peptide assay to monitor HCV NS3/4A proteolytic activity (BMS strain). As to conditions: BMS strain; read-out: IC50 against the NS3/4A BMS strain in the enzyme assay. From the text:
(§1) HCV NS3 protease complexes, derived from the BMS strain, H77 strain or J4L6S strain, were generated, as described below. These purified recombinant proteins were generated for use in a homogeneous assay (see below) to provide an indication of how effective compounds of the present disclosure would be in inhibiting HCV NS3 proteolytic activity.
Serum from an HCV-infected patient was obtained from Dr. T. Wright, San Francisco Hospital. An engineered full-length cDNA (compliment deoxyribonucleic acid) template of the HCV genome (BMS strain) was constructed from DNA fragments obtained by reverse transcription-PCR(RT-PCR) of serum RNA (ribonucleic acid) and using primers selected on the basis of homology between other genotype la strains. From the determination of the entire genome sequence, a genotype la was assigned to the HCV isolate according to the classification of Simmonds et al. (See P Simmonds, K A Rose, S Graham, S W Chan, F McOmish, B C Dow, E A Follett, P L Yap and H Marsden, J. Clin. Microbiol., 31(6), 1493-1503 (1993)). […] The infectious clones, H77 (1a genotype) and J4L6S (1b genotype) were obtained from R. Purcell (NIH) and the sequences are published in Genbank (AAB67036, see Yanagi, M., Purcell, R. H., Emerson, S. U. and Bukh, J. Proc. Natl. Acad. Sci. U.S.A. 94(16), 8738-8743 (1997); AF054247, see Yanagi, M., St Claire, M., Shapiro, M., Emerson, S. U., Purcell, R. H. and Bukh, J, Virology 244 (1), 161-172. (1998)).
The H77 and J4L6S strains were used for production of recombinant NS3/4A protease complexes. DNA encoding the recombinant HCV NS3/4A protease complex (amino acids 1027 to 1711) for these strains were manipulated as described by P. Gallinari et al. (see Gallinari P, Paolini C, Brennan D, Nardi C, Steinkuhler C, De Francesco R. Biochemistry. 38(17):5620-32, (1999)). Briefly, a three-lysine solubilizing tail was added at the 3′-end of the NS4A coding region. The cysteine in the P1 position of the NS4A-NS4B cleavage site (amino acid 1711) was changed to a glycine to avoid the proteolytic cleavage of the lysine tag. Furthermore, a cysteine to serine mutation was introduced by PCR at amino acid position 1454 to prevent the autolytic cleavage in the NS3 helicase domain. The variant DNA fragment was cloned in the pET21b bacterial expression vector (Novagen) and the NS3/4A complex was expressed in Escherichia. coli strain BL21 (DE3) (Invitrogen) following the protocol described by P. Gallinari et al. (see Gallinari P, Brennan D, Nardi C, Brunetti M, Tomei L, Steinkuhler C, De Francesco R., J. Virol. 72(8):6758-69 (1998)) with modifications. Briefly, the NS3/4A protease complex expression was induced with 0.5 millimolar (mM) Isopropyl β-D-1-thiogalactopyranoside (IPTG) for 22 hours (h) at 20° C. A typical fermentation (1 Liter (L)) yielded approximately 10 grams (g) of wet cell paste. The cells were resuspended in lysis buffer (10 mL/g) consisting of 25 mM N-(2-Hydroxyethyl)piperazine-N′-(2-Ethane Sulfonic acid) (HEPES), pH 7.5, 20% glycerol, 500 mM Sodium Chloride (NaCl), 0.5% Triton X-100, 1 microgram/milliliter (“μg/mL”) lysozyme, 5 mM Magnesium Chloride (MgCl2), 1 μg/ml DnaseI, 5 mM β-Mercaptoethanol (βME), Protease inhibitor-Ethylenediamine Tetraacetic acid (EDTA) free (Roche), homogenized and incubated for 20 minutes (min) at 4° C. The homogenate was sonicated and clarified by ultra-centrifugation at 235000 g for 1 hour (h) at 4° C. Imidazole was added to the supernatant to a final concentration of 15 mM and the pH adjusted to 8.0. The crude protein extract was loaded on a Nickel-Nitrilotriacetic acid (Ni-NTA) column pre-equilibrated with buffer B (25 mM HEPES, pH 8.0, 20% glycerol, 500 mM NaCl, 0.5% Triton X-100, 15 mM imidazole, 5 mM βME). The sample was loaded at a flow rate of 1 mL/min. The column was washed with 15 column volumes of buffer C (same as buffer B except with 0.2% Triton X-100). The protein was eluted with 5 column volumes of buffer D (same as buffer C except with 200 mM Imidazole). […]

The target in test [3] is T3, HCV NS3/4A protease complex, H77 strain (1a genotype) (Hepatitis C virus genotype 1a, UniProt P27958, C1454S/C1711G).
T3 construct: DNA encoding the recombinant HCV NS3/4A protease complex (amino acids 1027 to 1711) for these strains; made in house; host or cells: Escherichia coli BL21 (DE3), pET21b
T3 sequence (P27958 1027-1711 C1454S/C1711G, one chain of several): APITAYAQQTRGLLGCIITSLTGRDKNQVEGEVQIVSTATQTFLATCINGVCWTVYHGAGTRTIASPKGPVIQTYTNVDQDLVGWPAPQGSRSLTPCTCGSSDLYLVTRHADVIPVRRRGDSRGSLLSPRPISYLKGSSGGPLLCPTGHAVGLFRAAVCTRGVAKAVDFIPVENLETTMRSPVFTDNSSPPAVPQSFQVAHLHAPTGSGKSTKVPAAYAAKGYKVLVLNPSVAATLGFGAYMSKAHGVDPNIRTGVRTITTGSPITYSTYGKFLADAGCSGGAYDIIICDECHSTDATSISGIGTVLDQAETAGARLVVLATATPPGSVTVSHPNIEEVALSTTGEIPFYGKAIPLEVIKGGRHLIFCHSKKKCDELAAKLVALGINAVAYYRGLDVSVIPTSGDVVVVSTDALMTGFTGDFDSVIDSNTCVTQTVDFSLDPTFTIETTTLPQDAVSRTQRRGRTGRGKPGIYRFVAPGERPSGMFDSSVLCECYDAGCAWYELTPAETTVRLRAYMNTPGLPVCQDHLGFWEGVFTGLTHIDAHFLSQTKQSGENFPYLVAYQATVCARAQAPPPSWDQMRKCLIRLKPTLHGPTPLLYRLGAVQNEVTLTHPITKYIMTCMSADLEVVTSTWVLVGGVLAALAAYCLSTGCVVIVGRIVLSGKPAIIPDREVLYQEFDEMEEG
The test is described as follows: FRET peptide assay to monitor HCV NS3/4A proteolytic activity (H77 strain). Particulars: read-out: IC50 against NS3/4A H77 strain.
Description: as §1
Serum from an HCV-infected patient was obtained from Dr. T. Wright, San Francisco Hospital. An engineered full-length cDNA (compliment deoxyribonucleic acid) template of the HCV genome (BMS strain) was constructed from DNA fragments obtained by reverse transcription-PCR(RT-PCR) of serum RNA (ribonucleic acid) and using primers selected on the basis of homology between other genotype la strains. From the determination of the entire genome sequence, a genotype la was assigned to the HCV isolate according to the classification of Simmonds et al. (See P Simmonds, K A Rose, S Graham, S W Chan, F McOmish, B C Dow, E A Follett, P L Yap and H Marsden, J. Clin. Microbiol., 31(6), 1493-1503 (1993)). […]

T1 sequence (P00772 27-266): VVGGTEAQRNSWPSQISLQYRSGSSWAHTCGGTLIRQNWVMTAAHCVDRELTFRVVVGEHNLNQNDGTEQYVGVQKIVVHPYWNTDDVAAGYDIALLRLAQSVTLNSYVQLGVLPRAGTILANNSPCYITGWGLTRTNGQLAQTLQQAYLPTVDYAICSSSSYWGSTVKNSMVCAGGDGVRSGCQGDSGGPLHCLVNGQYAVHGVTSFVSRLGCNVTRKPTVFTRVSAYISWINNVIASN

Turning to `C=C[C@@H]1C[C@]1(NC(=O)[C@@H]1C[C@@](O)(c2ccc(-c3ccccc3)cc2)CN1C(=O)[C@@H](NC(=O)OC(C)(C)C)C(C)(C)C)C(=O)NS(=O)(=O)C1CC1` [Compound 3], the pIC50 in test [1] is < 4.00; in test [2], 8.36; in test [3] it was 8.80.
